The values that follow come from ChEMBL document CHEMBL4725382, “Uridine natural products: Challenging targets and inspiration for novel small molecule inhibitors” (Bioorg Med Chem, 2020).

As usually defined, the MIC is the smallest concentration in the dilution series that meets the test's criterion for growth inhibition.

In brackets after ≈: the same amount, converted by molar mass.

The assay relates to Mycobacterium tuberculosis. Put plainly: Antimycobacterial activity against Mycobacterium tuberculosis H37Rv. Format: functional.

The compound `CCCCCCCCCCCCCCCCNC(=O)C1=CCN(C)[C@@H]([C@H](O[C@@H]2O[C@H](CN)[C@@H](O)[C@H]2O)[C@H]2O[C@@H](n3ccc(=O)[nH]c3=O)[C@H](O)[C@@H]2O)C(=O)N1C` showed a minimum inhibitory concentration (MIC) of 0.98 µM (≈ 0.765 µg/mL).

`CCCCCCNC(=O)C1=CCN(C)[C@@H]([C@H](O[C@@H]2O[C@H](CN)[C@@H](O)[C@H]2O)[C@H]2O[C@@H](n3ccc(=O)[nH]c3=O)[C@H](O)[C@@H]2O)C(=O)N1C` showed an MIC of 0.98 µM (≈ 0.628 µg/mL).

The compound `CN1C(=O)[C@H]([C@H](O[C@@H]2O[C@H](CN)[C@@H](O)[C@H]2O)[C@H]2O[C@@H](n3ccc(=O)[nH]c3=O)[C@H](O)[C@@H]2O)N(C)CC=C1C(=O)Nc1ccc(C2CCCCC2)cc1` had a minimum inhibitory concentration (MIC) of 2.18 µM (≈ 1.56 µg/mL).

As to `CCCCCCCCNC(=O)C1=CCN(C)[C@@H]([C@H](O[C@@H]2O[C@H](CN)[C@@H](O)[C@H]2O)[C@H]2O[C@@H](n3ccc(=O)[nH]c3=O)[C@H](O)[C@@H]2O)C(=O)N1C`, inhibition of growth (MIC) required 0.98 µM (≈ 0.655 µg/mL).

As for `Nc1ccc(C2CCCCC2)cc1`, the lowest concentration to inhibit growth (MIC) was 2.27 µM (≈ 0.398 µg/mL).

For `CCCCCNC(=O)C1=CCN(C)[C@@H]([C@H](O[C@@H]2O[C@H](CN)[C@@H](O)[C@H]2O)[C@H]2O[C@@H](n3ccc(=O)[nH]c3=O)[C@H](O)[C@@H]2O)C(=O)N1C`, the MIC worked out at 0.98 µM (≈ 0.614 µg/mL).

`CCCCc1ccc(NC(=O)C2=CCN(C)[C@@H]([C@H](O[C@@H]3O[C@H](CN)[C@@H](O)[C@H]3O)[C@H]3O[C@@H](n4ccc(=O)[nH]c4=O)[C@H](O)[C@@H]3O)C(=O)N2C)cc1` yielded a minimal inhibitory concentration (MIC) of 1.09 µM (≈ 0.751 µg/mL).

As for `CCCCCCCCCNC(=O)C1=CCN(C)[C@@H]([C@H](O[C@@H]2O[C@H](CN)[C@@H](O)[C@H]2O)[C@H]2O[C@@H](n3ccc(=O)[nH]c3=O)[C@H](O)[C@@H]2O)C(=O)N1C`, it took 0.98 µM (≈ 0.669 µg/mL) to inhibit growth (MIC).

`CC/C=C\CCCCCCCCCCOC(=O)C1=CCN(C)[C@@H]([C@H](O[C@@H]2O[C@H](CN)[C@@H](O)[C@H]2O)[C@H]2O[C@@H](n3ccc(=O)[nH]c3=O)[C@H](O)[C@@H]2O)C(=O)N1C` showed a minimum inhibitory concentration (MIC) of 16.6 µM (≈ 12.5 µg/mL).

Turning to `CCc1ccc(NC(=O)C2=CCN(C)[C@@H]([C@H](O[C@@H]3O[C@H](CN)[C@@H](O)[C@H]3O)[C@H]3O[C@@H](n4ccc(=O)[nH]c4=O)[C@H](O)[C@@H]3O)C(=O)N2C)cc1`, the lowest concentration to inhibit growth (MIC) was 1.09 µM (≈ 0.72 µg/mL).

Regarding `CCCCCCCCCCCCCCCCCCCCNC(=O)C1=CCN(C)[C@@H]([C@H](O[C@@H]2O[C@H](CN)[C@@H](O)[C@H]2O)[C@H]2O[C@@H](n3ccc(=O)[nH]c3=O)[C@H](O)[C@@H]2O)C(=O)N1C`, it took 0.98 µM (≈ 0.82 µg/mL) to inhibit growth (MIC).

With `CCCCCCCCCCCNC(=O)C1=CCN(C)[C@@H]([C@H](O[C@@H]2O[C@H](CN)[C@@H](O)[C@H]2O)[C@H]2O[C@@H](n3ccc(=O)[nH]c3=O)[C@H](O)[C@@H]2O)C(=O)N1C`, it took 0.98 µM (≈ 0.697 µg/mL) to inhibit growth (MIC).

Compound `CCCCCCCNC(=O)C1=CCN(C)[C@@H]([C@H](O[C@@H]2O[C@H](CN)[C@@H](O)[C@H]2O)[C@H]2O[C@@H](n3ccc(=O)[nH]c3=O)[C@H](O)[C@@H]2O)C(=O)N1C` gave a minimum inhibitory concentration (MIC) of 0.98 µM (≈ 0.642 µg/mL).

As for `CN1C(=O)[C@H]([C@H](O[C@@H]2O[C@H](CN)[C@@H](O)[C@H]2O)[C@H]2O[C@@H](n3ccc(=O)[nH]c3=O)[C@H](O)[C@@H]2O)N(C)CC=C1C(=O)NC1CCCCCCCCCCC1`, the lowest concentration to inhibit growth (MIC) was 2.16 µM (≈ 1.56 µg/mL).

In the case of `CCCCCCCCCCCCCOC(=O)C1=CCN(C)[C@@H]([C@H](O[C@@H]2O[C@H](CN)[C@@H](O)[C@H]2O)[C@H]2O[C@@H](n3ccc(=O)[nH]c3=O)[C@H](O)[C@@H]2O)C(=O)N1C`, the minimum inhibitory concentration (MIC) amounted to 8.45 µM (≈ 6.25 µg/mL).

`C=CCCCCCCCCCOC(=O)C1=CCN(C)[C@@H]([C@H](O[C@@H]2O[C@H](CN)[C@@H](O)[C@H]2O)[C@H]2O[C@@H](n3ccc(=O)[nH]c3=O)[C@H](O)[C@@H]2O)C(=O)N1C` came in with an MIC of 17.6 µM (≈ 12.5 µg/mL).
